The source of these data is patent US9611262B2, “Substituted 2-azabicycles and their use as orexin receptor modulators” (JANSSEN PHARMACEUTICA NV, priority 2014, dated 2017).

Where only a bound is given, the exact number is not on record here.

In one assay the target is rat orexin 1 receptor (Rattus norvegicus, UniProt P56718). Briefly: Rat orexin 1 receptor radioligand binding (competitive). The following applies: HEK293 cells stably expressing rat orexin 1 receptor; 4 nM radioligand; averages of 2-20 runs; read-out: rOX1 Ki. The protocol: The in vitro affinity of the compounds of the invention for the rat/human orexin 1 and human orexin 2 receptors was determined by competitive radioligand binding using [^3H](1-(5-(2-fluoro-phenyl)-2-methyl-thiazol-4-yl)-1-((S)-2-(5-phenyl-(1,3,4)oxadiazol-2-ylmethyl)-pyrrolidin-1-yl)-methanone) (Langmead et al., 2004) and [^3H]EMPA (n-ethyl-2[96-methoxy-pyridin-3-yl)-(toluene-2-sulfonyl)-amino]-N-pyridin-3-ylmethyl acetamide), respectively (Langmead et al., 2004, British Journal of Pharmacology 141:340-346; Malherbe et al., 2004, British Journal of Pharmacology 156:1326-41).
Data are analyzed using pc-Sandy macro and graphed on Graphpad Prism 5. For analysis, each concentration point is averaged from triplicate values and the averaged values are plotted on Graphpad Prism. The IC50 was determined by applying the following equation (GraphPad Prism 5.0, San Diego) for one site competition where X=log (concentration) and Y=specific binding. Top denotes the total [^3H]— (1-(5-(2-fluoro-phenyl)-2-methyl-thiazol-4-yl)-1-((S)-2-(5-phenyl-(1,3,4)oxadiazol-2-ylmethyl)-pyrrolidin-1-yl)-methanone) binding, bottom denotes the nonspecific [^3H]— (1-(5-(2-fluoro-phenyl)-2-methyl-thiazol-4-yl)-1-((S)-2-(5-phenyl-(1,3,4)oxadiazol-2-ylmethyl)-pyrrolidin-1-yl)-methanone) binding. Graphpad Prism calculates Ki value from IC50 and the pre-determined Kd values for [^3H]— (1-(5-(2-fluoro-phenyl)-2-methyl-thiazol-4-yl)-1-((S)-2-(5-phenyl-(1,3,4)oxadiazol-2-ylmethyl)-pyrrolidin-1-yl)-methanone) and [^3H]-EMPA. The Ki for each compound is then uploaded into 3DX. Each run comprises individual compounds in triplicate. The data in Table 1 and Table 2 represent averages from between 2-20 runs
Rat and Human Orexin 1 Receptor Radioligand Binding Studies
Human Embryonic Kidney 293 cells (HEK293) stably expressing rat orexin 1 receptor (Genebank accession number NM_001525) or Chinese ovary cells (CHO) stably expressing human orexin 1 receptor (Genebank accession number […]) were grown to confluency in DMEM (Hyclone, cat # SH30022), 10% FBS, 1× Pen/Strep, 1× sodium pyruvate, 10 mM HEPES, 600 μg/mL G418 and DMEM/F12 (Gibco, Cat #11039), 10% FBS, 1× Pen/Strep, 600 μg/mL G418 media, respectively on 150 cm^2 tissue culture plates, washed with 5 mM EDTA in PBS (HyClone Dulbecco's Phosphate Buffered Saline 1× with Calcium and Magnesium, Cat # SH30264.01, hereafter referred to simply as PBS) and scraped into 50 ml tubes. After centrifugation (2K×G, 5 min at 4° C.), the supernatant was aspirated and the pellets frozen and stored at −80° C. Cells were resuspended in PBS in the presence of 1 tablet of protease inhibitor cocktail (Roche, Cat. #11836145001) per 50 mL. […] Competition binding experiments in 96 well polypropylene plates were performed using [^3H]— (1-(5-(2-fluoro-phenyl)-2-methyl-thiazol-4-yl)-1-((S)-2-(5-phenyl-(1,3,4)oxadiazol-2-ylmethyl)-pyrrolidin-1-yl)-methanone) (Moraveck Corporation, specific activity=35.3 Ci/mmol), diluted to a 10 nM concentration in PBS (4 nM final). Compounds were solubilized in 100% DMSO (Acros Organics, Cat. #61042-1000) and tested over a range of 7 concentrations (from 0.1 nM to 10 μM). The final concentration of DMSO in the reactions is equal to or less than 0.1%. Total and nonspecific binding was determined in the absence and presence of 10 μM almorexant. The total volume of each reaction is 200 μL (20 μL of diluted compounds, 80 μL of [^3H]— (1-(5-(2-fluoro-phenyl)-2-methyl-thiazol-4-yl)-1-((S)-2-(5-phenyl-(1,3,4)oxadiazol-2-ylmethyl)-pyrrolidin-1-yl)-methanone) diluted in PBS and 100 μL of the cell suspension). Reactions were run for 60 min at room temperature and terminated by filtration through GF/C filter plates (PerkinElmer, Cat. #6005174) presoaked in 0.3% polyethylenimine using the cell harvester (PerkinElmer Filtermate). The plates were washed 3 times by aspirating 30 ml PBS through the plates. Plates were dried in 55° C. oven for 60 min, scintillation fluid was added, and the radioactivity was counted on a Topcount (Packard). […]

A further assay deals with human orexin 2 receptor (Homo sapiens (Human), UniProt O43614). Briefly: Human orexin 2 receptor radioligand binding ([3H]-EMPA competition). The following applies: HEK293 stably expressing human orexin 2 receptor; 2 nM [3H]-EMPA; averages of 2-20 runs; read-out: hOX2 Ki. In outline:
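Membranes-free whole HEK293 cells stably expressing human OX2 receptor incubated with [3H]-EMPA and compound (7 concentrations, 0.1 nM–10 μM, ≤0.1% DMSO) for 60 min at room temperature; nonspecific binding with 10 μM almorexant. Filtration and scintillation counting; one-site IC50 converted to Ki using predetermined Kd, triplicates averaged over 2-20 runs.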

Chain of human orexin 2 receptor (O43614 whole entry): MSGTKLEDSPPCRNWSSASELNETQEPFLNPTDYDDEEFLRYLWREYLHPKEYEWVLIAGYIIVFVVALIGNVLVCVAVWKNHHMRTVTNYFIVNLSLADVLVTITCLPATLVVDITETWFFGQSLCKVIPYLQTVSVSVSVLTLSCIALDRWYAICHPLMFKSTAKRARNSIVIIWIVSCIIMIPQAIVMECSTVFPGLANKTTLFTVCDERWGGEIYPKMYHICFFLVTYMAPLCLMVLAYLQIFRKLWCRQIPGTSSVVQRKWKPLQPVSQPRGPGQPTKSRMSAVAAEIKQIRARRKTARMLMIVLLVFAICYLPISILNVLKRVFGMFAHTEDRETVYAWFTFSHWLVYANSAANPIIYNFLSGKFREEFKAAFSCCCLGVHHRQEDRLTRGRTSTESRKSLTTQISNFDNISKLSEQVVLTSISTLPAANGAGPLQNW

Take `C[C@@H]1[C@H]2C[C@@H](Oc3ccc(C(F)(F)F)nc3)[C@H](C2)N1C(=O)c1ccccc1-n1nccn1` (relative stereo) [Example 41, (2-(2H-1,2,3-triazol-2-yl)phenyl)((1S*,3R*,4R*,6R*)-3-methyl-6-((6-(trifluoromethyl)pyridin-3-yl)oxy)-2-azabicyclo[2.2.1]heptan-2-yl)methanone]: the inhibition constant Ki – broadly, the equilibrium dissociation constant of an inhibitor or competing ligand from its target – at rat orexin 1 receptor was 0.3 µM; on human orexin 2 receptor it was greater than 10 µM.
`C[C@@H]1[C@H]2C[C@@H](Oc3ccc(C(F)(F)F)cn3)[C@H](C2)N1C(=O)c1cccc(-c2ccc(F)cc2)c1` [Example 36, (4′-fluoro-[1,1′-biphenyl]-3-yl)((1S,3R,4R,6R)-3-methyl-6-((5-(trifluoromethyl)pyridin-2-yl)oxy)-2-azabicyclo[2.2.1]heptan-2-yl)methanone]: the Ki at rat orexin 1 receptor was 0.845 µM; on human orexin 2 receptor, greater than 10 µM.
In the case of `[2H]C([2H])([2H])[C@]1([2H])[C@H]2C[C@@H](Oc3ccc(C(F)(F)F)cn3)[C@H](C2)N1C(=O)c1cccc(F)c1-n1nccn1` [Example 164, [(1R,2R,4S,5R)-2-deuterio-2-(trideuteriomethyl)-5-[[5-(trifluoromethyl)-2-pyridyl]oxy]-3-azabicyclo[2.2.1]heptan-3-yl]-[3-fluoro-2-(triazol-2-yl)phenyl]methanone], the Ki on rat orexin 1 receptor came out at 0.005 µM; on human orexin 2 receptor, 0.565 µM.
As to `C[C@@H]1[C@H]2C[C@@H](Oc3ccc(C(F)(F)F)cn3)[C@H](C2)N1C(=O)c1ccccc1-c1ncc(OCCF)cn1` [Example 169, [2-[5-(2-fluoroethoxy)pyrimidin-2-yl]phenyl]-[(1R,2R,4S,5R)-2-methyl-5-[[5-(trifluoromethyl)-2-pyridyl]oxy]-3-azabicyclo[2.2.1]heptan-3-yl]methanone], the Ki at rat orexin 1 receptor came to 0.052 µM; at human orexin 2 receptor, 3.94 µM.
On to `C[C@@H]1[C@H]2C[C@@H](Oc3ccc(C(F)(F)F)cn3)[C@H](C2)N1C(=O)c1ccccc1-c1cnc(F)cn1` [Example 170, [2-(5-fluoropyrazin-2-yl)phenyl]-[(1R,2R,4S,5R)-2-methyl-5-[[5-(trifluoromethyl)-2-pyridyl]oxy]-3-azabicyclo[2.2.1]heptan-3-yl]methanone], for which the inhibitory constant (Ki) at rat orexin 1 receptor is 0.009 µM; on human orexin 2 receptor, 1.6 µM.
On to `O=C(c1c(F)cccc1-n1nccn1)N1[C@H](CO)[C@@H]2CC[C@H]1[C@H](Oc1ccc(C(F)(F)F)cn1)C2` [Example 177, [2-fluoro-6-(triazol-2-yl)phenyl]-[(1R,2S,4S,5R)-2-(hydroxymethyl)-5-[[5-(trifluoromethyl)-2-pyridyl]oxy]-3-azabicyclo[2.2.2]octan-3-yl]methanone], for which the Ki on rat orexin 1 receptor was 1.15 µM; on human orexin 2 receptor, greater than 10 µM.
The like results for `O=C(c1cc(F)ccc1-c1ncc(F)cn1)N1[C@H](CO)[C@@H]2CC[C@H]1[C@H](Oc1ccc(C(F)(F)F)cn1)C2` [Example 178, [5-fluoro-2-(5-fluoropyrimidin-2-yl)phenyl]-[(1R,2S,4S,5R)-2-(hydroxymethyl)-5-[[5-(trifluoromethyl)-2-pyridyl]oxy]-3-azabicyclo[2.2.2]octan-3-yl]methanone] were, in that order, 1.1 µM and greater than 10 µM.
The like results for `COC[C@@H]1[C@@H]2CC[C@@H]([C@H](Oc3ccc(C(F)(F)F)cn3)C2)N1C(=O)c1nc(C)ccc1-n1nccn1` [Example 179, [(1R,2S,4S,5R)-2-(methoxymethyl)-5-[[5-(trifluoromethyl)-2-pyridyl]oxy]-3-azabicyclo[2.2.2]octan-3-yl]-[6-methyl-3-(triazol-2-yl)-2-pyridyl]methanone] were, in that order, 0.015 µM and 2.1 µM.
In the case of `COC[C@@H]1[C@@H]2CC[C@@H]([C@H](Oc3ccc(C(F)(F)F)cn3)C2)N1C(=O)c1nc(C)ccc1-c1ncccn1` [Example 180, [(1R,2S,4S,5R)-2-(methoxymethyl)-5-[[5-(trifluoromethyl)-2-pyridyl]oxy]-3-azabicyclo[2.2.2]octan-3-yl]-(6-methyl-3-pyrimidin-2-yl-2-pyridyl)methanone], the Ki was determined as 0.032 µM at rat orexin 1 receptor and 1.7 µM on human orexin 2 receptor.
The like results for `COC[C@@H]1[C@@H]2CC[C@@H]([C@H](Oc3ccc(C(F)(F)F)cn3)C2)N1C(=O)c1ccccc1-c1ncccn1` [Example 181, [(1R,2S,4S,5R)-2-(methoxymethyl)-5-[[5-(trifluoromethyl)-2-pyridyl]oxy]-3-azabicyclo[2.2.2]octan-3-yl]-(2-pyrimidin-2-ylphenyl)methanone] were, in that order, 0.087 µM and greater than 10 µM.
The like results for `Cc1ccc(-c2ncccn2)c(C(=O)N2[C@H](C)[C@H]3C[C@@H](Oc4ccc(C(F)F)cn4)[C@@H]2C3)n1` [Example 182, [(1R,2R,4S,5R)-5-[[5-(difluoromethyl)-2-pyridyl]oxy]-2-methyl-3-azabicyclo[2.2.1]heptan-3-yl]-(6-methyl-3-pyrimidin-2-yl-2-pyridyl)methanone] were, in that order, 0.011 µM and 0.095 µM.
The matching figures for `CCOC(=O)[C@@H]1[C@H]2C[C@@H](Oc3ccc(C(F)(F)F)cn3)[C@H](C2)N1C(=O)c1nc(C)ccc1-n1nccn1` [Example 192, ethyl (1R,2S,4S,5R)-3-[6-methyl-3-(triazol-2-yl)pyridine-2-carbonyl]-5-[[5-(trifluoromethyl)-2-pyridyl]oxy]-3-azabicyclo[2.2.1]heptane-2-carboxylate]: 0.053 µM and 0.795 µM.
As to `C[C@@H]1[C@H]2C[C@@H](Oc3ccc(C(F)(F)F)cn3)[C@H](C2)N1C(=O)c1ccc(OCCF)cc1-n1nccn1` [Example 202, [4-(2-fluoroethoxy)-2-(triazol-2-yl)phenyl]-[(1R,2R,4S,5R)-2-methyl-5-[[5-(trifluoromethyl)-2-pyridyl]oxy]-3-azabicyclo[2.2.1]heptan-3-yl]methanone], the values for the Ki at rat orexin 1 receptor and on human orexin 2 receptor were 0.196 µM and greater than 10 µM, respectively.
The like results for `C[C@@H]1[C@H]2C[C@@H](Oc3ccc(C(F)(F)F)cn3)[C@H](C2)N1C(=O)c1cc2ccccc2nc1OCCO` [Example 203, [2-(2-hydroxyethoxy)-3-quinolyl]-[(1R,2R,4S,5R)-2-methyl-5-[[5-(trifluoromethyl)-2-pyridyl]oxy]-3-azabicyclo[2.2.1]heptan-3-yl]methanone] were, in that order, 0.06 µM and greater than 10 µM.
The matching figures for `C[C@@H]1[C@H]2C[C@@H](Oc3ccc(C(F)(F)F)cn3)[C@H](C2)N1C(=O)c1cc(OCCBr)ccc1-n1nccn1` [Example 204, [5-(2-bromoethoxy)-2-(triazol-2-yl)phenyl]-[(1R,2R,4S,5R)-2-methyl-5-[[5-(trifluoromethyl)-2-pyridyl]oxy]-3-azabicyclo[2.2.1]heptan-3-yl]methanone]: 0.071 µM and 0.236 µM.
